Measured values: patent US20100035877A1, “METHODS AND COMPOSITIONS FOR TREATING PATHOLOGIES ASSOCIATED WITH BDNF SIGNALING” (priority 2006, published 2010)

Key:
[1] = system: wildtype and Mecp2 null mice; assay: Whole-body plethysmography of respiratory function after CX546 treatment; type: in vivo, mouse; conditions: for effect on breathing frequency and minute volume/weight: CX546 40 mg/kg b.i.d. 3 days; for breathing frequency / Coefficient of variation of breathing frequency / minute volume/weight / tidal volume/weight: CX546 40 mg/kg i.p. b.i.d. 3 days; for breathing frequency: 18-24 h after last injection
Description: (§1) Beginning on P25, wildtype and Mecp2 null littermates were acclimatized to the injection protocol to reduce stress, first by handling for 10 min./day for 3 days, followed by saline injections (0.9% NaCl, i.p., b.i.d.) at 8:00 AM and 8:00 PM, for an additional 3 days. Subsequently, mice were assigned either to drug treatment (CX546, 40 mg/kg in 16.5% 2-hydroxypropyl-β-cyclodextrin, i.p., b.i.d.) or vehicle injections (cyclodextrin alone). On the day of their last injection, mice were trained in the plethysmograph recording chamber for one hour. Eighteen to 24 hours after their last injection, on P35, mice were returned to the chamber for recording of respiratory activity.
(§2) Breathing was recorded in unrestrained mice using a whole-body flow plethysmograph (Buxco II; Buxco Research Systems, Wilmington, N.C.) in which a constant bias flow supply connected to the animal recording chamber ensured continuous inflow of fresh air (1 L/min.). Ambient temperature was maintained between 23 and 25° C. Breathing traces were analyzed using Biosystem XA software (Buxco Research Systems). After the recording sessions, mice were euthanized with CO2 and tissue processed for BDNF immunoassay.
(§3) Wildtype and Mecp2 null littermates were treated for 3 days with CX546 (40 mg/kg in cyclodextrin, i.p., b.i.d.) or vehicle. Respiratory function was monitored by whole-body plethysmography 18-24 hours after the last injection, as described in Methods. At the end of the recording session the mice were sacrificed and the NG removed for BDNF ELISA. […] Treatment of wildtype mice with CX546 had no effect on NO BDNF content.

[2] = system: BDNF protein in nodose ganglion (NG); assay: BDNF ELISA of intact nodose ganglion after in vivo CX546 treatment; design: species or system mouse; conditions: CX546 40 mg/kg i.p. b.i.d. 3 days; for NG BDNF content: mean±SEM, n=6
Description: as §1, §2
BDNF protein levels in intact NG or in cultured NG cells were measured by ELISA using the BDNF Emax Immunoassay System (Promega). Protein extracts from one intact NG or from an equivalent number of cultured cells were used for ELISA.
as §3

[3] = in vivo; cited from earlier work

| SMILES | effect on breathing frequency and minute volume/weight ([1]; P35 Mecp2 null mice) | breathing frequency ([1]; P35 Mecp2 null mice, n=9) [breath/min.] | Coefficient of variation of breathing frequency ([1]; P35 Mecp2 null mice, n=9) [%] | minute volume/weight ([1]; P35 Mecp2 null mice, n=9) [mL/min/g] | tidal volume/weight ([1]; P35 Mecp2 null mice, n=9) [µL/g] | breathing frequency ([1]; P35 wildtype mice, n=7) [breath/min.] | Coefficient of variation of breathing frequency ([1]; P35 wildtype mice, n=7) [%] | minute volume/weight ([1]; P35 wildtype mice, n=7) [mL/min/g] | tidal volume/weight ([1]; P35 wildtype mice, n=7) [µL/g] | effect on breathing frequency and minute volume/weight ([1]; wildtype mice) | increase in BDNF protein content compared to vehicle-treated mutants ([2]; P35 Mecp2 null mice) [%] | NG BDNF content ([2]; P35 Mecp2 null mice) [pg BDNF/mL] | NG BDNF content ([2]; P35 wildtype mice) [pg BDNF/mL] | effect on NG BDNF content ([2]; wildtype mice) | half-life [3] | BDNF protein compared to unstimulated controls (NG neurons) |
| --- | --- | --- | --- | --- | --- | --- | --- | --- | --- | --- | --- | --- | --- | --- | --- | --- |
| O=C(c1ccc2c(c1)OCCO2)N1CCCCC1 [CX546, 1-(1,4-benzodioxan-6-ylcarbonyl)piperidine] | completely restores wildtype frequency and minute volume/weight | 176±8 | 23.4±1.5 | 1.13 ± 0.07 | 6.5 ± 0.3 | 177±6 | 18.5±1.2 | 1.14 ± 0.09 | 6.4 ± 0.5 | no effect | 42 | 114±4 | 167±5 | no effect | less than an hour |  |
| [Cl-].[K+] [KCI, potassium chloride] |  |  |  |  |  |  |  |  |  |  |  |  |  |  |  | significant increase |
